Assay results: patent US7981903B2, “2-[2-{phenylamino}-1H-pyrrolo[2,3-D]pyrimidin-4-yl)amino] benzamide derivatives as IGF-1R inhibitors for the treatment of cancer” (GlaxoSmithKline LLC, priority 2007, dated 2011)

Assays:
[1] = target: ALK (Homo sapiens, UniProt Q9UM73); assay: ALK enzyme assay (HTRF); type: biochemical; details: 0.25 nM ALK, 15.0 μM ATP, values given as pIC50 category
In short: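 Isolated ALK phosphorylates a biotinylated tyrosine peptide, 120 min at 20° C; anti-phosphotyrosine Eu-cryptate/streptavidin-XL665 HTRF read after 60 min with EDTA-containing detection mix.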

[2] = target: T1, NIH-3T3 cells overexpressing human IGF-1R (Homo sapiens, UniProt P08069); assay: IGF-1R cellular autophosphorylation (DELFIA); type: cell-based
T1 construct: expressed in transfected cells; host or cells: NIH-3T3 (mouse fibroblasts)
Method: NIH-3T3 cells overexpressing human IGF-1R or IR were plated in 96-well plates (10,000 cells/well) in culture media containing 10% fetal bovine serum and incubated at 37° C. in a 5% CO2 incubator. Twenty four hours post-plating, cells were treated with different concentrations of test compounds ranging from 30 uM to 1.5 nM. Two hours after compound addition, cells were stimulated with either human IGF-1 (30 ng/ml) or insulin (3 ug/ml) for 15 minutes. Cell lysates are analyzed for phosphorylated receptors using dissociation enhanced lanthanide fluor-immuno assay (DELFIA) with anti-IGF-1R (MAB391, R&D Systems, Minneapolis, Minn.) or anti-IRβ (sc-711, Santa Cruz Biotechnology, Santa Cruz, Calif.) capture antibody and europium-labeled anti-pTyr antibody (Eu-N1 PT66, Perkin Elmer, Waltham, Mass.) for detection. The fluorescence signal for cells treated with compounds was expressed as percent relative to 100% stimulation (IGF-1 or insulin stimulated signal).

[3] = target: T2, human IGF1R (hIGF1R) (Homo sapiens, UniProt P08069); assay: TR-FRET kinase assay of purified hIGF1R; type: biochemical; details: activated hIGF1R 0.5 nM, 10 μM ATP, values given as pIC50 category, read-out: IGF-1R pIC50 (converted)
T2 construct: containing amino acid residues 957-1367 of human IGF1R; made in house; host or cells: Sf9 cells (baculovirus)

[4] = target: T3, human IR (hIR) (Homo sapiens, UniProt P06213); assay: TR-FRET kinase assay of purified hIR; type: biochemical; details: activated hIR 0.5 nM, 10 μM ATP, values given as pIC50 category
T3 construct: containing amino acid residues 979-1382 of human IR; made in house; host or cells: Sf9 cells (baculovirus), same process as hIGF1R
T3 sequence (P06213 979-1382): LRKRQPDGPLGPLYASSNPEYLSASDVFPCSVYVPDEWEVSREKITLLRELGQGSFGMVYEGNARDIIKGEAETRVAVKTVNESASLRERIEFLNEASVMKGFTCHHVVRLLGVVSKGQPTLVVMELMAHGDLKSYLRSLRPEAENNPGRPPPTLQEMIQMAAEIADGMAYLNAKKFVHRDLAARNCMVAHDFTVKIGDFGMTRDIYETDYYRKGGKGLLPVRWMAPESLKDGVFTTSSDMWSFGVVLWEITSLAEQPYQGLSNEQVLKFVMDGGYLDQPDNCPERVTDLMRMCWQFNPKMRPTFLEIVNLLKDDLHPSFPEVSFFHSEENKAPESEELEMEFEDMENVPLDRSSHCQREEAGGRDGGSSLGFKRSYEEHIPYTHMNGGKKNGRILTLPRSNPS

T2 sequence (P08069 957-1367): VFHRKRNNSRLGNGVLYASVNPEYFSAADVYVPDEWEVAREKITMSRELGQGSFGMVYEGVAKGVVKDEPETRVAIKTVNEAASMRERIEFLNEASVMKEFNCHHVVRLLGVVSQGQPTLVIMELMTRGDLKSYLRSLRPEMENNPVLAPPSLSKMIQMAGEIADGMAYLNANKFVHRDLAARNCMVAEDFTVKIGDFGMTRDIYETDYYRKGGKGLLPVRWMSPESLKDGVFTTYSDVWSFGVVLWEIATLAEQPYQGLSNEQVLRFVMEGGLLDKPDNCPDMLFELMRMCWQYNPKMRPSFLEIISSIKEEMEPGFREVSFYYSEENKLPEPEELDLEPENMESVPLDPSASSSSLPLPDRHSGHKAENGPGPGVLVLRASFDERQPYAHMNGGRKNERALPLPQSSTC
T1 sequence (P08069 31-1367): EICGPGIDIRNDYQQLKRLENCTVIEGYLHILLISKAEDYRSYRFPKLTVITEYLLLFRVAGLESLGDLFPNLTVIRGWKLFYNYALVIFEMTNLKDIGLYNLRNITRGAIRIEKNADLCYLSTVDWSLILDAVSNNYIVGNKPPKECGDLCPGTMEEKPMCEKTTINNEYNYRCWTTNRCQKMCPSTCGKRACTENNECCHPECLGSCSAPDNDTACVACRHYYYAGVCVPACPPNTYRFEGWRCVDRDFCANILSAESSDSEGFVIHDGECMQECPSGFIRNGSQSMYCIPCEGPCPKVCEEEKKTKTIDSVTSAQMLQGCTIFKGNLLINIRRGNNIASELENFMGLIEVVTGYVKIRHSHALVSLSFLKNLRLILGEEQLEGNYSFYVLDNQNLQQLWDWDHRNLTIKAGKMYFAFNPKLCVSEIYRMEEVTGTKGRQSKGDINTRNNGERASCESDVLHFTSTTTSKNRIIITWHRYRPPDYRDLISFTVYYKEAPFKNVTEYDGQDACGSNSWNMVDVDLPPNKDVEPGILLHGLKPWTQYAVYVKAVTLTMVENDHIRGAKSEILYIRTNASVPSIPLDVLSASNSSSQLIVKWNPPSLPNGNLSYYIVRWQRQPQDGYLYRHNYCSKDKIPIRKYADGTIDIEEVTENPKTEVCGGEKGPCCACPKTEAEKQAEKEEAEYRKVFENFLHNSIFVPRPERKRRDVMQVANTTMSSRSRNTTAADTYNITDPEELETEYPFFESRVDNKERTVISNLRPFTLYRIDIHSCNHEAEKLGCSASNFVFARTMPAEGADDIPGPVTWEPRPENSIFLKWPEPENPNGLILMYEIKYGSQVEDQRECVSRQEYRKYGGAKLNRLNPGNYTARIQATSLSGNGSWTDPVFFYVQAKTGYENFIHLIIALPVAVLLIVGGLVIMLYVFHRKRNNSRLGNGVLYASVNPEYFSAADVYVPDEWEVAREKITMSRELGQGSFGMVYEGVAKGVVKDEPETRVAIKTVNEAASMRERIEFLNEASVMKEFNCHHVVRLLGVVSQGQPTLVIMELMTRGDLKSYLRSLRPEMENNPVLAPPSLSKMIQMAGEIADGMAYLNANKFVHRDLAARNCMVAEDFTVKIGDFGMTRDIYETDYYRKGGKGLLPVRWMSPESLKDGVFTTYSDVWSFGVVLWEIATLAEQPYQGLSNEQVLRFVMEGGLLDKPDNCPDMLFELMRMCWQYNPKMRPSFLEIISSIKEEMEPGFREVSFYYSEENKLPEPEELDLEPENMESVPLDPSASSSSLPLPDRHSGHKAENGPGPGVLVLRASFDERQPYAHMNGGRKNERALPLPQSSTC
Chain of ALK (Q9UM73 19-1620): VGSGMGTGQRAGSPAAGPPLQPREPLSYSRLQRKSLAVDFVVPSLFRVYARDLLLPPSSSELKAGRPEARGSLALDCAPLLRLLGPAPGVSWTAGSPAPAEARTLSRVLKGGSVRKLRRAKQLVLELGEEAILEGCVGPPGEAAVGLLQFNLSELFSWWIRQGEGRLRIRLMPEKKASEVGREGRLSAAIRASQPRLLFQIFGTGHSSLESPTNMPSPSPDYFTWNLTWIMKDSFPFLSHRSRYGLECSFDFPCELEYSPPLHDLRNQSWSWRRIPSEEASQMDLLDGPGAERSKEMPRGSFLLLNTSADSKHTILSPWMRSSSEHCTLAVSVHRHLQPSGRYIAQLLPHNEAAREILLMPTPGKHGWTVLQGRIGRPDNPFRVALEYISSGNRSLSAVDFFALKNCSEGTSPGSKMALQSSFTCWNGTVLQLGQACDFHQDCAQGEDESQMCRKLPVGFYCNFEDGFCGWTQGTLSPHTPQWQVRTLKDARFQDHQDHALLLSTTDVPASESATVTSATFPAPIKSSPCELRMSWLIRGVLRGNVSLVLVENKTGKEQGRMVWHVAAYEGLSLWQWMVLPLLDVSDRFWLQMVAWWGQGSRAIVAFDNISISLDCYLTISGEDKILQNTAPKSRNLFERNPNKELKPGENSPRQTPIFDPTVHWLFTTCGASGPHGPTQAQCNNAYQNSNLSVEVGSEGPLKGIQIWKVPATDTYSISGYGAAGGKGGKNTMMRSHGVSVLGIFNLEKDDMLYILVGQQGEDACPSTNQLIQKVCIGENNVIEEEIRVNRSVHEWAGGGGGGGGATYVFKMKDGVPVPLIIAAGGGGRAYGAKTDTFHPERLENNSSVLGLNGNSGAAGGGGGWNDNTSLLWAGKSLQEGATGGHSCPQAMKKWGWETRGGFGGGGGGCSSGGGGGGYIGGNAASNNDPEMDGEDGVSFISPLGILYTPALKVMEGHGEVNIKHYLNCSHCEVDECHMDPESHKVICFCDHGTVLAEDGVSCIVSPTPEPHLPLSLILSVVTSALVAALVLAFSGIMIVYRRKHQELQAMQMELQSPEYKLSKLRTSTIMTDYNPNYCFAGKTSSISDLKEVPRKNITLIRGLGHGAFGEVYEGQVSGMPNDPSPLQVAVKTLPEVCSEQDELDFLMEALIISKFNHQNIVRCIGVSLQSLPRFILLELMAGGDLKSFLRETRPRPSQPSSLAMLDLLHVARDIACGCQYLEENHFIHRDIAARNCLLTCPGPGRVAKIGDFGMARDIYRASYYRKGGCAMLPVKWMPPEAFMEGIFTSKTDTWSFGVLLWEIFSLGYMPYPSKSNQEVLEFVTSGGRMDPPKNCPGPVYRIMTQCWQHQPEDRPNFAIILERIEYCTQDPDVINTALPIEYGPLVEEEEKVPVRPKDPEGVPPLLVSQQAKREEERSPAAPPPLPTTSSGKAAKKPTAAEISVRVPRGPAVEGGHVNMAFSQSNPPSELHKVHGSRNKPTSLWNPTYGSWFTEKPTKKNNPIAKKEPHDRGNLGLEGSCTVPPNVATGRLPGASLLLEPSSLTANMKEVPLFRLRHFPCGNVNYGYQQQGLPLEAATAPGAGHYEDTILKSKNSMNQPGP

Compound | IC50 [1] | IC50 [2] | IC50 [3] | IC50 [4]
CN(C)CC(=O)Nc1ccc(OC(F)(F)F)c(Nc2nc(Nc3ccc(F)cc3C(N)=O)c3cc[nH]c3n2)c1 [Example 63, 2-{[2-({5-[(N,N-dimethylglycyl)amino]-2-[(trifluoromethyl)oxy]phenyl}amino)-1H-pyrrolo[2,3-d]pyrimidin-4-yl]amino}-5-fluorobenzamide] | 1.26 to 3.98 nM | 100 to 500 nM | 0.251 to 1 nM | 0.251 to 1 nM
CCCN1CCC=C(c2ccc(Nc3nc(Nc4cc(F)c(F)cc4C(N)=O)c4cc[nH]c4n3)c(OC)c2)C1 [Example 95, 4,5-difluoro-2-[(2-{[2-(methyloxy)-4-(1-propyl-1,2,5,6-tetrahydro-3-pyridinyl)phenyl]amino}-1H-pyrrolo[2,3-d]pyrimidin-4-yl)amino]benzamide] | 0.251 to 1 nM | 100 to 500 nM | 0.251 to 1 nM | 0.251 to 1 nM
Cc1ccc(NC(=O)CN(C)C)cc1Nc1nc(Nc2cc(F)c(F)cc2C(N)=O)c2cc[nH]c2n1 [Example 106, 2-{[2-({5-[(N,N-dimethylglycyl)amino]-2-methylphenyl}amino)-1H-pyrrolo[2,3-d]pyrimidin-4-yl]amino}-4,5-difluorobenzamide] | 5.01 to 200 nM | > 500 nM | 1.26 to 3.98 nM | 0.251 to 1 nM
Cc1ccc(NC(=O)CN(C)C)cc1Nc1nc(Nc2cc(Cl)ccc2C(N)=O)c2cc[nH]c2n1 [Example 111] | 5.01 to 200 nM | > 500 nM | 1.26 to 3.98 nM | 1.26 to 3.98 nM

Next, values leading:

IC50 [1] | IC50 [2] | IC50 [3] | IC50 [4] | Compound
5.01 to 200 nM | > 500 nM | 1.26 to 3.98 nM | 0.251 to 1 nM | Cc1ccc(NC(=O)CN(C)C)cc1Nc1nc(Nc2cc(F)ccc2C(N)=O)c2cc[nH]c2n1 [Example 85, 2-{[2-({5-[(N,N-dimethylglycyl)amino]-2-methylphenyl}amino)-1H-pyrrolo[2,3-d]pyrimidin-4-yl]amino}-4-fluorobenzamide]
0.251 to 1 nM | < 100 nM | 0.251 to 1 nM | 0.251 to 1 nM | COc1cc(C2=CCCN(C(C)C)C2)ccc1Nc1nc(Nc2cc(F)c(F)cc2C(N)=O)c2cc[nH]c2n1 [Example 96, 4,5-difluoro-2-[(2-{[4-[1-(1-methylethyl)-1,2,5,6-tetrahydro-3-pyridinyl]-2-(methyloxy)phenyl]amino}-1H-pyrrolo[2,3-d]pyrimidin-4-yl)amino]benzamide]
0.251 to 1 nM | < 100 nM | 0.251 to 1 nM | 0.251 to 1 nM | COc1cc(N2CCN(C(C)C)CC2)ccc1Nc1nc(Nc2cc(F)c(F)cc2C(N)=O)c2cc[nH]c2n1 [Example 102, 4,5-difluoro-2-[(2-{[4-[4-(1-methylethyl)-1-piperazinyl]-2-(methyloxy)phenyl]amino}-1H-pyrrolo[2,3-d]pyrimidin-4-yl)amino]benzamide]
5.01 to 200 nM | > 500 nM | 5.01 to 200 nM | 5.01 to 158 nM | CNC(=O)c1c(F)cccc1Nc1nc(Nc2cc3c(cc2OC)C[C@@H](C)N3C(=O)CN(C)C)nc2[nH]ccc12 [Example 250, 2-[(2-{[(2R)-1-(N,N-dimethylglycyl)-2-methyl-5-(methyloxy)-2,3-dihydro-1H-indol-6-yl]amino}-1H-pyrrolo[2,3-d]pyrimidin-4-yl)amino]-6-fluoro-N-methylbenzamide]
